# Measurements published in the METLIN SMRT retention time set (Domingo-Almenara et al. 2019).
# Experiment: gradient 5% acetonitrile 3 min, to 50% in 2 min, to 85% in 15 min, held 3 min, 100 µL/min
# Settings: column: Zorbax Extend-C18 2.1 x 50 mm; eluents: water / acetonitrile, 0.1% formic acid
# How it was run: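 The mobile phases were water and acetonitrile, each with 0.1% formic acid, pumped at 100 μL/min through a Zorbax Extend-C18 column (2.1 × 50 mm, 1.8 μm). Pure standards were injected as mixtures of ~100 molecules and detected by a quadrupole time-of-flight mass spectrometer in positive and negative ionization mode. Retention time came from computationally picked adduct peaks, each inspected by hand.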
row,RP-LC retention time [s],SMILES
1,700,CCn1cnc2cc(-c3noc(C4CC(=O)N(c5ccc(C)cc5)C4)n3)ccc21 (stereo not given)
2,764,NC(=O)C1(c2cccc(C(F)(F)F)c2)CC1
3,584,NC(=O)C1CCN(C(=O)NC2CCCCC2)CC1
4,819,Cc1cc(-c2ccc(C(C)C)c(S(=O)(=O)N3CCN(c4ccccn4)CC3)c2)on1
5,1120,COc1cc(C(=O)Nc2nc(-c3ccc(C)cc3)cs2)c(Br)c(OC)c1OC
6,964,Cc1nn(CC(=O)NC2CCCC2)c(=O)c2c(-n3cccc3)n(-c3cccc(F)c3)nc12
7,600,C=C(C)Cn1c(CNC(=O)c2ccccc2)nc2ccccc21
8,986,COc1ccccc1C(=O)NC1(C(F)(F)F)C(=O)N(CC2CCCO2)C2=C1C(=O)CC(C)(C)C2 (stereo not given)
9,595,CS(=O)(=O)N(Cc1ccncc1)C1CN(S(=O)(=O)c2ccccc2)C1
10,934,O=C(COc1ccc(F)cc1)NC1(c2nc(-c3ccncc3)no2)CCCCC1
11,898,COc1ccccc1CCNC(=O)Cn1cc(S(=O)(=O)c2ccccc2)c2ccccc21
12,676,Cc1cccc(N2CCN(C(=O)c3ccc(Cn4cncn4)cc3)CC2C)c1 (stereo not given)
13,623,CCc1nc(N)n(CC(=O)NCc2ccccc2)c(=O)c1C
14,606,c1ccc2c(c1)nnn1c3cnccc3nc21
15,667,O=C(CSc1nc2ccsc2c(=O)n1-c1ccc(F)cc1)Nc1ncn[nH]1
16,560,COc1ccc2nc(NC3=NCN(Cc4cccnc4)CN3)nc(C)c2c1
17,734,COc1cccc(-n2nnc(C(=O)O)c2C(C)C)c1
18,653,CCOCCCNC(=O)[C@@H]1[C@H](c2cc(OC)c(OC)c(OC)c2)c2cc3c(cc2[C@H](O)[C@H]1CO)OCO3
19,827,O=C(N[C@H]1C[C@@H]2C[C@H]1N(C(=O)Cc1c(F)cccc1Cl)C2)c1ccccc1
20,791,O=C(NCc1cc(F)cc(F)c1)C1CCN(c2ccc(SCc3ccccc3)nn2)CC1
21,1130,COc1ccc(N2CCN(c3cc(SCC(=O)Nc4cc(Cl)ccc4C)ncn3)CC2)cc1
22,979,Cc1ccc(CN(C(=O)COc2ccc(Cl)c(C)c2)C2CCS(=O)(=O)C2)o1 (stereo not given)

row,RP-LC retention time [s],SMILES
1,591,O=C(CN1C(=O)CCC1=O)N1CCC(c2noc(-c3cnccn3)n2)C1 (stereo not given)
2,670,Cc1ccc(S(=O)(=O)Nc2cccc(-c3nc4ncccn4c3C)c2)cc1
3,1190,O=C(C1COc2ccccc2O1)N1CCc2cc(-c3csc(C4CC4)n3)ccc21 (stereo not given)
4,1340,CC1CCN(S(=O)(=O)c2ccc3nn(CCOc4ccc(F)cc4)c(=O)n3c2)CC1
5,1180,O=C(Nc1ccc(-c2nc(-c3ccccc3)no2)cc1)c1ccc(Br)o1
6,633,Cc1ccn2c(NC(=O)c3cccs3)c(-c3ccccc3)nc2c1
7,687,O=C(Nc1nc2cccc(-c3ccc(CN4CCS(=O)(=O)CC4)cc3)n2n1)C1CC1
8,818,O=C(CSc1nc(-c2ccccc2Cl)ns1)Nc1nccs1
9,738,CSc1ccc(CCNC(=O)c2ccc(CN3CC(=O)N4CCCCC4C3=O)cc2)cc1 (stereo not given)
10,816,CCCOc1ccc(-c2csc(NC(=O)CN3C(=O)CCC3=O)n2)cc1
11,872,CCC(=O)N1CCc2c(C(=O)N3CCN(c4ccccc4F)CC3)cccc21
12,751,Cn1ncc2c(Nc3cccc(Cl)c3)nc(N3CCN(C4CCCCC4)CC3)nc21
13,936,CN(C)Cc1ccc(S(=O)(=O)n2ccc(/C=C/C(=O)NO)c2)cc1
14,867,Cn1c(=O)sc2cc(S(=O)(=O)N3CCC(C(=O)NCCCc4ccccc4)CC3)ccc21
15,894,CCn1c(=O)c(C)nc2cc(-c3noc(-c4cc(OC)cc(OC)c4)n3)ccc21
16,634,COc1ccc2c(c1)CC(NC(=O)NCCCN1CCN(Cc3ccccc3)CC1)CO2 (stereo not given)
17,767,Cc1cc(C(=O)Nc2nnc(SCC(=O)Nc3ccccc3C(F)(F)F)s2)no1
18,753,O=C(Cn1c(=O)cc(C(=O)N2CCCCC2)c2ccccc21)NC1CCCCC1
19,1010,CCn1c(=O)n(CC(=O)N2CCCC2)c(=O)c2cnc(-c3ccc(Cl)cc3)nc21
20,759,O=C([C@@H]1C[C@H](Oc2ccccc2)CN1C(=O)C1CC=CC1)N1CCCC1
21,952,Cc1ccc(Cn2c(N3CCCC(C(=O)NCc4cccs4)C3)nc3ccsc3c2=O)cc1 (stereo not given)
22,659,Cc1ccc(CN2CCC(CNC(=O)c3noc(C)c3Cn3nc(C)cc3C)C2)cc1 (stereo not given)

row,RP-LC retention time [s],SMILES
1,715,O=C(Cn1nc2c(cc1=O)CCCC2)Nc1cccc(N2CCCCS2(=O)=O)c1
2,931,Cc1ccc(NC(=O)NC2CCN(c3ccc(C)c(C)c3)C2=O)cc1 (stereo not given)
3,757,Cc1ccccc1Cn1c(CN2CCC(C(=O)N3CCCC3)CC2)cc2ccccc21
4,716,CCCNC(=O)Nc1cc2c(cc1N1CCC(C(=O)OCC)CC1)n(C)c(=O)n2C
5,1020,Cc1ccc(-c2ccc(-n3nc(C)c(S(=O)(=O)NCc4ccc5c(c4)OCO5)c3C)nn2)cc1
6,717,Cn1cc(-c2ccncc2)c(-c2ccc(OCc3ccc4ccccc4n3)cc2)n1
7,705,Cc1noc(-c2ccc(SCC(=O)Nc3ccc(S(N)(=O)=O)cc3)nc2)n1
8,1080,CC(C)c1cc(C(=O)Nc2ccc(Cl)cc2)no1
9,629,CCCCNC(=O)CCCN1C(=O)CCn2nc(C)cc21
10,873,Cc1cc(NC(=O)CN2C(=O)NC(c3ccc(Cl)cc3)C3=C2COC3=O)ccc1Br (stereo not given)
11,551,CCCOc1ccc(CN2C[C@@H](CO)[C@H](N(C)C)C2)cc1OC
12,770,O=C(OCc1ccncc1)c1cn(-c2cccc(Cl)c2)c(=O)c2ccccc12
13,807,CC1CCCN(c2ncc(S(=O)(=O)c3ccc(C(C)C)cc3)c(N)n2)C1 (stereo not given)
14,751,CCN(CC)S(=O)(=O)N1CCC(C(=O)NCCc2ccc(OC)c(OC)c2)CC1
15,692,Cn1cc(-c2cc3n(n2)CCC(=O)N3CCCC(=O)N2CCOCC2)c2ccccc21
16,733,O=C(Nc1nnc(-c2ccc(Cl)s2)o1)c1ccc2ncsc2c1
17,649,COc1cc(C)c(C)cc1S(=O)(=O)N1CCN(c2ccc(-c3cccnc3)nn2)CC1
18,668,CCC1CN2C=Nc3oc(C)c(C(=O)Nc4ccccc4OC)c3C2=N1 (stereo not given)
19,899,O=C(CN1C(=O)N/C(=C\c2ccc(Cl)cc2)C1=O)Nc1ccc(Cl)cc1
20,1040,Clc1ccc(Nc2c(-c3ccc(Cl)cc3)nc3cnccn23)cc1
21,1010,O=C(c1ccccc1Br)N1CCc2nc(-c3ccc(F)cc3)ncc2C1
